In patent publication US5391540A, “Substituted pyridine compounds” (Rohm and Haas Company, priority 1993, dated 1995):

What was measured:
Experiment in all cases: Pre-emergent herbicidal activity (Table A)
Assay type in all cases: in vivo
[1] = system: Canada thistle; details: Cirsium arvense, pre-emergence, Cath, 11.2 kg/ha, 10-14 days, read-out: herbicidal rating (% inhibition)
In short: (§1)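 Seeds or perennial propagules set on compacted topsoil, then covered with soil mixed with a known amount of test compound applied in acetone or water carrier. Ratings assigned on a scale based on percent inhibition of each species.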

[2] = system: Common Lambsquarters; details: Chenopodium album, pre-emergence, Colq, 11.2 kg/ha, 10-14 days, read-out: herbicidal rating (% inhibition)
In short: as §1

[3] = system: Velvetleaf; details: Abutilon theophrasti, pre-emergence, Vele, 11.2 kg/ha, 10-14 days, read-out: herbicidal rating (% inhibition)
In short: as §1

[4] = system: Rhizome Johnsongrass; details: Sorghum halepense, pre-emergence, Rhjg, 11.2 kg/ha, 10-14 days, read-out: herbicidal rating (% inhibition)
In short: as §1

[5] = system: Barnyardgrass; details: Echinochloa crus-galli, pre-emergence, Bygr, 11.2 kg/ha, 10-14 days, read-out: herbicidal rating (% inhibition)
In short: as §1

[6] = system: Morningglory; details: Ipomoea, pre-emergence, Mogl, 11.2 kg/ha, 10-14 days, read-out: herbicidal rating (% inhibition)
In short: as §1

[7] = system: Yellow Nutsedge; details: Cyperus, pre-emergence, Yens, 11.2 kg/ha, 10-14 days, read-out: herbicidal rating (% inhibition)
In short: as §1

[8] = system: Pennsylvania Smartweed; details: pre-emergence, Pesw, 11.2 kg/ha, 10-14 days, read-out: herbicidal rating (% inhibition)
In short: as §1

[9] = system: Quackgrass; details: pre-emergence, Rhqg, 11.2 kg/ha, 10-14 days, read-out: herbicidal rating (% inhibition)
In short: as §1

[10] = system: Cocklebur; details: Xanthium strumarium, pre-emergence, Cobu, 11.2 kg/ha, 10-14 days, read-out: herbicidal rating (% inhibition)
In short: as §1

[11] = system: Downy Brome; details: Bromus tectorum, pre-emergence, Dobr, 11.2 kg/ha, 10-14 days, read-out: herbicidal rating (% inhibition)
In short: as §1

Row | SMILES | inhibition at 11200 g/ha [1] [%] | inhibition at 11200 g/ha [2] [%] | inhibition at 11200 g/ha [3] [%] | inhibition at 11200 g/ha [4] [%] | inhibition at 11200 g/ha [5] [%] | inhibition at 11200 g/ha [6] [%] | inhibition at 11200 g/ha [7] [%] | inhibition at 11200 g/ha [8] [%] | inhibition at 11200 g/ha [9] [%] | inhibition at 11200 g/ha [10] [%] | inhibition at 11200 g/ha [11] [%]
1 | COc1nc(C(F)(F)F)c(C(=O)SC)c(C2CCC2)c1C(=O)SC [Compound 65, 3,5 pyridinedicarbothioic acid, 4-cyclobuty1-2-methoxy-6-(trifluoromethyl)-, S,S-dimethyl ester] | 75 to 100 | 75 to 100 | 75 to 100 | 0 to 24 | 75 to 100 | 75 to 100 | 25 to 49 | 75 to 100 | 50 to 74 | 25 to 49 | 75 to 100
2 | CCOC(=O)c1c(OCC)nc(C(F)(F)F)c(C(=O)OCC)c1CC(C)C [Compound 39, 3,5-pyridinedicarboxylic acid, 2-ethoxy-4-(2-methylpropyl)-6-(trifluoromethyl)-, diethyl ester] | 0 to 24 | 75 to 100 | 50 to 74 | 0 to 24 | 75 to 100 | 25 to 49 | 0 to 24 | 75 to 100 | 0 to 24 | 0 to 24 | 75 to 100
3 | COC(=O)c1c(OC)nc(C(F)(F)F)c(C2=NCC(C)S2)c1CC(C)C (stereo not shown) [Compound 64, 3-pyridinecarboxylic acid, 5-(4,5-dihydro-5-methy1-2-thiazolyl)-2-methoxy-4-(2-methylpropyl)-6-(trifluoromethyl)-, methyl ester] | 75 to 100 | 75 to 100 | 75 to 100 | 0 to 24 | 75 to 100 | 75 to 100 | 0 to 24 | 75 to 100 | 50 to 74 | 75 to 100 | 75 to 100
4 | COC(=O)c1c(C(F)(F)F)nc(OC)c(N=CSC)c1CC(C)C [Compound 58, 3-pyridinecarboxylic acid, 6-methoxy-4-(2-methylpropyl)-5-[(methylthiomethylene)]amino-2-(trifluoromethyl)-, methyl ester] | 0 to 24 | 75 to 100 | 25 to 49 | 0 to 24 | 75 to 100 | 25 to 49 | 0 to 24 | 75 to 100 | 75 to 100 | 0 to 24 | 75 to 100
5 | COC=Nc1c(C(F)(F)F)nc(OC)c(C(=O)OC)c1CC(C)C [Compound 76, 3-pyridinecarboxylic acid, 2-methoxy-5-[(methoxymethylene)amino]-4-(2-methylpropyl)-6-(trifluoromethyl)-, methyl ester] | 75 to 100 | 75 to 100 | 75 to 100 | 50 to 74 | 75 to 100 | 75 to 100 | 50 to 74 | 75 to 100 | 75 to 100 | 0 to 24 | 75 to 100
6 | COC(=O)c1c(OC)nc(C(F)(F)F)c(C(=O)OC)c1C(C)C [Compound 63, 3,5-pyridinedicarboxylic acid, 2-methoxy-4-(1-methylethyl)-6-(trifluoromethyl)-, dimethyl ester] | 50 to 74 | 75 to 100 | 75 to 100 | 75 to 100 | 75 to 100 | 75 to 100 | 75 to 100 | 75 to 100 | 75 to 100 | 0 to 24 | 75 to 100
7 | CCSC(=O)c1c(C(F)(F)F)nc(OC)c(C(=O)OC)c1CC(C)C [Compound 53, 3-pyridinecarboxylic acid, 5-[(ethylthio)carbonyl]-2-methoxy-4-(2-methylpropyl)-6-(trifluoromethyl)-, methyl ester] | 0 to 24 | 75 to 100 | 75 to 100 | 0 to 24 | 75 to 100 | 75 to 100 | 0 to 24 | 75 to 100 | 75 to 100 | 75 to 100 | 75 to 100
8 | CCOC=Nc1c(C(F)(F)F)nc(OC)c(C(=O)OC)c1CC(C)C [Compound 61, 3-pyridinecarboxylic acid, 5-[(ethoxymethylene)amino]-2-methoxy-4-(2-methylpropyl)-6-(trifluoromethyl)-, methyl ester] | 50 to 74 | 75 to 100 | 75 to 100 | 75 to 100 | 75 to 100 | 75 to 100 | 0 to 24 | 75 to 100 | 75 to 100 | 25 to 49 | 75 to 100
9 | COC(=O)c1c(OC)nc(C(F)(F)F)c(C2=NCCO2)c1CC(C)C [Compound 43, 3-pyridinecarboxylic acid, 5-(4,5-dihydro-2-oxazolyl)-2-methoxy-4-(2-methylpropyl)-6-(trifluoromethyl)-, methyl ester] | 75 to 100 | 75 to 100 | 75 to 100 | 75 to 100 | 75 to 100 | 75 to 100 | 75 to 100 | 75 to 100 | 75 to 100 | 50 to 74 | 75 to 100
10 | COC(=O)c1c(C(F)(F)F)nc(OC)c(C(=O)SC)c1CC(C)C [Compound 33, 3-pyridinecarboxylic acid, 6-methoxy-4-(2-methylpropyl)-5-[(methylthio)carbonyl]-2-(trifluoromethyl)-, methyl ester] | 50 to 74 | 75 to 100 | 75 to 100 | 75 to 100 | 75 to 100 | 75 to 100 | 50 to 74 | 75 to 100 | 75 to 100 | 25 to 49 | 75 to 100
11 | CCOC(=O)c1c(OCC)nc(C(F)(F)F)c(C(=O)OC)c1CC(C)C [Compound 3, 3,5-pyridinedicarboxylic acid, 2-ethoxy-4-(2-methylpropyl)-6-(trifluoromethyl)-, 3-ethyl 5-methyl ester, hydrate (1:0.4)] | 75 to 100 | 75 to 100 | 0 to 24 | 0 to 24 | 75 to 100 | 50 to 74 | 25 to 49 | 50 to 74 | 75 to 100 | 0 to 24 | 75 to 100
